# According to PubChem BioAssay AID328 (DTP/NCI, 2004):
# Several values for one entry are separate records, joined by “and”; a condition that tells them apart may be missing. Identical values can stand only once. Toxic doses and inconclusive results are not listed.
# Tested on: BDF1 mice, P388 leukemia ip, median survival T/C
# Assay: NCI In Vivo Anticancer Drug Screen. Data for tumor model P388 Leukemia (intraperitoneal) in B6D2F1 (BDF1) mice
# Details: endpoint: median survival time, higher = longer survival
# In short: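 Antitumour effect was judged in vivo: survival in drug-treated mice, normalised to that of vehicle-dosed controls, gives the reported T/C.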
# [1] = dose: 50.0 mg/kg/injection, schedule: Q01DX009 (ip), vehicle: saline with Tween-80
# [2] = dose: 100.0 mg/kg/injection, schedule: Q01DX009 (ip), vehicle: saline with Tween-80
# [3] = dose: 200.0 mg/kg/injection, schedule: Q01DX009 (ip), vehicle: saline with Tween-80
# [4] = dose: 200.0 mg/kg/injection, schedule: Q01DX009 (ip), vehicle: saline
# [5] = dose: 12.5 mg/kg/injection, schedule: Q04DX003 (ip), vehicle: saline
# [6] = dose: 100.0 mg/kg/injection, schedule: Q04DX003 (ip), vehicle: saline with Tween-80
# [7] = dose: 50.0 mg/kg/injection, schedule: Q04DX003 (ip), vehicle: Klucel (hydroxypropylcellulose) (HPC)
# [8] = dose: 100.0 mg/kg/injection, schedule: Q04DX003 (ip), vehicle: Klucel (hydroxypropylcellulose) (HPC)
# [9] = dose: 200.0 mg/kg/injection, schedule: Q04DX003 (ip), vehicle: Klucel (hydroxypropylcellulose) (HPC)
smiles,measurement,setting,value
COc1c(C)c2c(c(O)c1C/C=C(\C)CCC(=O)O)C(=O)OC2,T/C,"dose: 25.0 mg/kg/injection, schedule: Q01DX010 (ip), vehicle: saline",112 % of control and 100 % of control
same,T/C,"dose: 50.0 mg/kg/injection, schedule: Q01DX010 (ip), vehicle: saline",104 % of control and 118 % of control
same,T/C,"dose: 100.0 mg/kg/injection, schedule: Q01DX010 (ip), vehicle: saline",116 % of control and 100 % of control
same,T/C,"dose: 100.0 mg/kg/injection, schedule: Q04DX002 (ip), vehicle: Klucel (hydroxypropylcellulose) (HPC)",100 % of control
same,T/C,"dose: 200.0 mg/kg/injection, schedule: Q01DX010 (ip), vehicle: saline",100 % of control and 118 % of control
same,T/C,"dose: 200.0 mg/kg/injection, schedule: Q04DX002 (ip), vehicle: Klucel (hydroxypropylcellulose) (HPC)",100 % of control
same,T/C,"dose: 400.0 mg/kg/injection, schedule: Q04DX002 (ip), vehicle: Klucel (hydroxypropylcellulose) (HPC)",116 % of control
CCCCNc1c(OC)ccc2c(C)c3[n+](cc12)CCc1cc(OC)c(OC)cc1-3,T/C,"dose: 1.56 mg/kg/injection, schedule: Q04DX003 (ip), vehicle: water",103 % of control
same,T/C,"dose: 3.13 mg/kg/injection, schedule: Q04DX003 (ip), vehicle: water",103 % of control
Cc1cccc(C)c1NC(=S)N1CCC(CCCC2CCN(C(=S)Nc3c(C)cccc3C)CC2)CC1,T/C,[1],86 % of control
same,T/C,[2],90 % of control
same,T/C,[3],104 % of control
CC(N)c1ccccc1 (stereo not drawn) (tested in a mixture with another compound),T/C,"dose: 50.0 mg/kg/injection, schedule: Q01DX009 (ip), vehicle: saline",96 % of control
same,T/C,"dose: 100.0 mg/kg/injection, schedule: Q01DX009 (ip), vehicle: saline",104 % of control
same,T/C,[4],95 % of control
Cc1cccnc1NC(=O)/C=C/C(=O)O,T/C,"dose: 3.12 mg/kg/injection, schedule: Q01DX001 (ip), vehicle: saline",100 % of control
same,T/C,"dose: 6.25 mg/kg/injection, schedule: Q01DX001 (ip), vehicle: saline",100 % of control
same,T/C,"dose: 12.5 mg/kg/injection, schedule: Q01DX001 (ip), vehicle: saline",100 % of control
same,T/C,"dose: 12.5 mg/kg/injection, schedule: Q01DX009 (ip), vehicle: saline",95 % of control
same,T/C,[5],100 % of control
same,T/C,"dose: 18.0 mg/kg/injection, schedule: Q01DX001 (ip), vehicle: saline",109 % of control
same,T/C,"dose: 25.0 mg/kg/injection, schedule: Q01DX009 (ip), vehicle: saline",100 % of control
same,T/C,"dose: 28.0 mg/kg/injection, schedule: Q01DX001 (ip), vehicle: saline",100 % of control
same,T/C,"dose: 40.0 mg/kg/injection, schedule: Q01DX001 (ip), vehicle: saline",104 % of control
CCC[N+]12C(O)C(CC)C3CC1C1N(C)c4ccc(Br)cc4C14CC2C3C4O (stereo not drawn),T/C,[1],102 % of control
same,T/C,[2],105 % of control
O=C(O)CC(O)(CC(=O)O)C(=O)O.[Ga],T/C,"dose: 75.0 mg/kg/injection, schedule: Q01DX009 (ip), vehicle: saline",114 % of control
same,T/C,"dose: 112.5 mg/kg/injection, schedule: Q01DX009 (ip), vehicle: saline",90 % of control
same,T/C,"dose: 132.0 mg/kg/injection, schedule: Q04DX003 (ip), vehicle: saline",115 % of control
same,T/C,"dose: 200.0 mg/kg/injection, schedule: Q04DX003 (ip), vehicle: saline",110 % of control
same,T/C,"dose: 300.0 mg/kg/injection, schedule: Q04DX003 (ip), vehicle: saline",110 % of control
NC(=O)c1ccc(NC(=O)/C=C/C(=O)Nc2ccc(C(N)=O)cn2)nc1,T/C,"dose: 0.08 mg/kg/injection, schedule: Q01DX009 (ip), vehicle: saline",115 % of control
same,T/C,"dose: 0.17 mg/kg/injection, schedule: Q01DX009 (ip), vehicle: saline",120 % of control
same,T/C,"dose: 0.35 mg/kg/injection, schedule: Q01DX009 (ip), vehicle: saline",105 % of control
same,T/C,"dose: 0.7 mg/kg/injection, schedule: Q01DX009 (ip), vehicle: saline",103 % of control
same,T/C,"dose: 1.4 mg/kg/injection, schedule: Q01DX009 (ip), vehicle: saline",107 % of control
same,T/C,"dose: 1.65 mg/kg/injection, schedule: Q01DX009 (ip), vehicle: saline with Tween-80",113 % of control
same,T/C,"dose: 2.5 mg/kg/injection, schedule: Q01DX009 (ip), vehicle: saline with Tween-80",117 % of control
same,T/C,"dose: 3.75 mg/kg/injection, schedule: Q01DX009 (ip), vehicle: saline with Tween-80",94 % of control
same,T/C,"dose: 4.5 mg/kg/injection, schedule: Q04DX003 (ip), vehicle: saline",86 % of control
same,T/C,"dose: 5.62 mg/kg/injection, schedule: Q01DX009 (ip), vehicle: saline",104 % of control
same,T/C,"dose: 9.0 mg/kg/injection, schedule: Q04DX003 (ip), vehicle: saline",108 % of control
same,T/C,"dose: 18.0 mg/kg/injection, schedule: Q04DX003 (ip), vehicle: saline",100 % of control
same,T/C,"dose: 26.0 mg/kg/injection, schedule: Q04DX003 (ip), vehicle: saline",112 % of control
same,T/C,"dose: 40.0 mg/kg/injection, schedule: Q04DX003 (ip), vehicle: saline",108 % of control
C(CCC1CO1)CC1CO1 (stereo not drawn),T/C,"dose: 50.0 mg/kg/injection, schedule: Q04DX005 (ip), vehicle: saline with Tween-80",115 % of control
same,T/C,"dose: 200.0 mg/kg/injection, schedule: Q04DX002 (ip), vehicle: saline with Tween-80",173 % of control
CC(C)c1oc(=O)cc2c1[C@@H](O)[C@H]1OC(=O)[C@@]3(C)[C@@H](O)[C@H]4O[C@H]4[C@@]2(C)[C@@H]13,T/C,"dose: 15.0 mg/kg/injection, schedule: Q04DX003 (ip), vehicle: saline with Tween-80",115 % of control
same,T/C,"dose: 30.0 mg/kg/injection, schedule: Q01DX001 (ip), vehicle: saline with Tween-80",104 % of control
same,T/C,"dose: 30.0 mg/kg/injection, schedule: Q04DX003 (ip), vehicle: saline with Tween-80",97 % of control
N=Nc1c2ccccc2c2nc3c(N)[nH]nc(N)c3nc12,T/C,[6],97 % of control
same,T/C,"dose: 400.0 mg/kg/injection, schedule: Q04DX003 (ip), vehicle: saline with Tween-80",95 % of control
CC1(C)CN(C(C)(C)C)CC(C)(C)C(=O)C1=O,T/C,[5],90 % of control
same,T/C,"dose: 25.0 mg/kg/injection, schedule: Q04DX003 (ip), vehicle: saline",95 % of control
same,T/C,"dose: 50.0 mg/kg/injection, schedule: Q04DX003 (ip), vehicle: saline",95 % of control
Cc1cc(C(C)(C)CC(C)(C)C)ccc1O,T/C,"dose: 88.0 mg/kg/injection, schedule: Q01DX009 (sc), vehicle: olive oil, sesame oil, peanut oil",100 % of control
same,T/C,"dose: 100.0 mg/kg/injection, schedule: Q01DX009 (sc), vehicle: olive oil, sesame oil, peanut oil",100 % of control
same,T/C,"dose: 100.0 mg/kg/injection, schedule: Q04DX003 (sc), vehicle: olive oil, sesame oil, peanut oil",91 % of control
same,T/C,"dose: 133.0 mg/kg/injection, schedule: Q01DX009 (sc), vehicle: olive oil, sesame oil, peanut oil",92 % of control
same,T/C,"dose: 200.0 mg/kg/injection, schedule: Q01DX009 (sc), vehicle: olive oil, sesame oil, peanut oil",86 % of control
same,T/C,"dose: 200.0 mg/kg/injection, schedule: Q04DX003 (sc), vehicle: olive oil, sesame oil, peanut oil",100 % of control
same,T/C,"dose: 300.0 mg/kg/injection, schedule: Q01DX009 (sc), vehicle: olive oil, sesame oil, peanut oil",106 % of control
same,T/C,"dose: 400.0 mg/kg/injection, schedule: Q01DX009 (sc), vehicle: olive oil, sesame oil, peanut oil",110 % of control
same,T/C,"dose: 400.0 mg/kg/injection, schedule: Q04DX003 (sc), vehicle: olive oil, sesame oil, peanut oil",104 % of control
CSC(c1ccccc1)=[N+]1CCOCC1,T/C,"dose: 50.0 mg/kg/injection, schedule: Q01DX009 (ip), vehicle: other",100 % of control
same,T/C,[7],100 % of control
same,T/C,"dose: 100.0 mg/kg/injection, schedule: Q01DX009 (ip), vehicle: other",118 % of control
same,T/C,[8],100 % of control
same,T/C,"dose: 200.0 mg/kg/injection, schedule: Q01DX009 (ip), vehicle: other",113 % of control
same,T/C,[9],90 % of control
NC(=O)C1(c2ccccc2)CCN(Cc2ccccc2)CC1,T/C,[1],96 % of control
same,T/C,"dose: 50.0 mg/kg/injection, schedule: Q04DX003 (ip), vehicle: saline with Tween-80",100 % of control
same,T/C,[2],111 % of control
same,T/C,[6],90 % of control
CC(C)CC(NC(=O)CN)C(=O)O (stereo not drawn),T/C,"dose: 25.0 mg/kg/injection, schedule: Q01DX009 (ip), vehicle: saline with Tween-80",98 % of control
same,T/C,[1],99 % of control
same,T/C,[2],102 % of control
same,T/C,[3],111 % of control
same,T/C,[4],118 % of control
same,T/C,"dose: 400.0 mg/kg/injection, schedule: Q01DX009 (ip), vehicle: saline",96 % of control
Cc1cc(C)c(CCc2cc(C)c(C)cc2C)cc1C,T/C,[7],95 % of control
same,T/C,[8],91 % of control
same,T/C,[9],87 % of control and 108 % of control
